Reference: BindingDB's records for doi:10.1016/j.bmc.2006.12.019 (Berlex, 2007)

target: T1, Serine protease 1 (Bos taurus, UniProt P00760); test: Enzyme Inhibition Assay
T1 sequence (P00760 whole entry): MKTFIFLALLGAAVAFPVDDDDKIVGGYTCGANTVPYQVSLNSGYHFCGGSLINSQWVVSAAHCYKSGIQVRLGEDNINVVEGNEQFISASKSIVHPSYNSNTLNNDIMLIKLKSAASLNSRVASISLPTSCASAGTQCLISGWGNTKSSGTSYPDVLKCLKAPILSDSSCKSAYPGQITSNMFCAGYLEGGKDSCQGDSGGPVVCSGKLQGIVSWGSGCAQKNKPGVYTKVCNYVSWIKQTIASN
Description: The enzyme activities were determined kinetically as the initial rate of cleavage of a peptide p-nitroanilide. Km for enzyme and substrate was determined using four substrate dilutions. Enzyme was incubated with test compounds for 10 min; the reaction was then started by the addition of the substrate. […] IC50 values for inhibitors were determined from the dose response curve by fitting the data to the Hill equation. Ki,app values were calculated as the IC50/2, with the IC50 value determined at a substrate concentration equal to Km

| SMILES | Ki [µM] |
| --- | --- |
| O=C(O)CN1CCN(Cc2ccc3c(Cl)c(C(=O)Nc4ccc(Cl)cc4C(=O)Nc4ccc(Cl)cc4)sc3c2)CC1 [2-(4-{[3-chloro-2-({4-chloro-2-[(4-chlorophenyl)carbamoyl]phenyl}carbamoyl)-1-benzothiophen-6-yl]methyl}piperazin-1-yl)acetic acid] | > 5 |
| O=C(Nc1ccc(Cl)cc1)c1cc(Cl)ccc1NC(=O)c1sc2ccccc2c1Cl [3-chloro-N-{4-chloro-2-[(4-chlorophenyl)carbamoyl]phenyl}-1-benzothiophene-2-carboxamide] | > 5 |
| O=C(Nc1ccc(Cl)cc1)c1cc(Cl)ccc1NC(=O)c1scc(Cn2cccn2)c1Cl [3-chloro-N-{4-chloro-2-[(4-chlorophenyl)carbamoyl]phenyl}-4-(1H-pyrazol-1-ylmethyl)thiophene-2-carboxamide] | > 5 |
| O=C(Nc1ccc(Cl)cc1)c1cc(Cl)ccc1NC(=O)c1scc(Cn2nccn2)c1Cl [3-chloro-N-{4-chloro-2-[(4-chlorophenyl)carbamoyl]phenyl}-4-(2H-1,2,3-triazol-2-ylmethyl)thiophene-2-carboxamide] | > 5 |
| O=C(Nc1ccc(Cl)cc1)c1cc(Cl)ccc1NC(=O)c1scc(CN2CCSCC2)c1Cl [3-chloro-N-{4-chloro-2-[(4-chlorophenyl)carbamoyl]phenyl}-4-(thiomorpholin-4-ylmethyl)thiophene-2-carboxamide] | > 5 |
| CN(C)CCSCc1csc(C(=O)Nc2ccc(Cl)cc2C(=O)Nc2ccc(Cl)cc2)c1Cl [3-chloro-N-{4-chloro-2-[(4-chlorophenyl)carbamoyl]phenyl}-4-({[2-(dimethylamino)ethyl]sulfanyl}methyl)thiophene-2-carboxamide] | > 5 |
| O=C(Nc1ccc(Cl)cc1)c1cc(Cl)ccc1NC(=O)c1scc(CNCCCn2ccnc2)c1Cl [3-chloro-N-{4-chloro-2-[(4-chlorophenyl)carbamoyl]phenyl}-4-({[3-(1H-imidazol-1-yl)propyl]amino}methyl)thiophene-2-carboxamide] | > 5 |
| CN(C)CCCN(C)Cc1csc(C(=O)Nc2ccc(Cl)cc2C(=O)Nc2ccc(Cl)cc2)c1Cl [3-chloro-N-{4-chloro-2-[(4-chlorophenyl)carbamoyl]phenyl}-4-({[3-(dimethylamino)propyl](methyl)amino}methyl)thiophene-2-carboxamide] | > 5 |
| CN(CCN1CCCC1)Cc1csc(C(=O)Nc2ccc(Cl)cc2C(=O)Nc2ccc(Cl)cc2)c1Cl [3-chloro-N-{4-chloro-2-[(4-chlorophenyl)carbamoyl]phenyl}-4-({methyl[2-(pyrrolidin-1-yl)ethyl]amino}methyl)thiophene-2-carboxamide] | > 5 |
| O=C(Nc1ccc(Cl)cc1)c1cc(Cl)ccc1NC(=O)c1scc(COCC(O)CO)c1Cl (stereo not drawn) [3-chloro-N-{4-chloro-2-[(4-chlorophenyl)carbamoyl]phenyl}-4-[(2,3-dihydroxypropoxy)methyl]thiophene-2-carboxamide] | > 5 |
| COCCOCc1csc(C(=O)Nc2ccc(Cl)cc2C(=O)Nc2ccc(Cl)cc2)c1Cl [3-chloro-N-{4-chloro-2-[(4-chlorophenyl)carbamoyl]phenyl}-4-[(2-methoxyethoxy)methyl]thiophene-2-carboxamide] | > 5 |
| CC(=O)N1CCN(Cc2csc(C(=O)Nc3ccc(Cl)cc3C(=O)Nc3ccc(Cl)cc3)c2Cl)CC1 [3-chloro-N-{4-chloro-2-[(4-chlorophenyl)carbamoyl]phenyl}-4-[(4-acetylpiperazin-1-yl)methyl]thiophene-2-carboxamide] | > 5 |
| CCN1CCN(Cc2csc(C(=O)Nc3ccc(Cl)cc3C(=O)Nc3ccc(Cl)cc3)c2Cl)CC1 [3-chloro-N-{4-chloro-2-[(4-chlorophenyl)carbamoyl]phenyl}-4-[(4-ethylpiperazin-1-yl)methyl]thiophene-2-carboxamide] | > 5 |
| CC1(C)OCC(COCc2csc(C(=O)Nc3ccc(Cl)cc3C(=O)Nc3ccc(Cl)cc3)c2Cl)O1 (stereo not drawn) [3-chloro-N-{4-chloro-2-[(4-chlorophenyl)carbamoyl]phenyl}-4-{[(2,2-dimethyl-1,3-dioxolan-4-yl)methoxy]methyl}thiophene-2-carboxamide] | > 5 |
| CN(Cc1csc(C(=O)Nc2ccc(Cl)cc2C(=O)Nc2ccc(Cl)cc2)c1Cl)CC(O)CO (stereo not drawn) [3-chloro-N-{4-chloro-2-[(4-chlorophenyl)carbamoyl]phenyl}-4-{[(2,3-dihydroxypropyl)(methyl)amino]methyl}thiophene-2-carboxamide] | > 5 |
| CN(CCO)Cc1csc(C(=O)Nc2ccc(Cl)cc2C(=O)Nc2ccc(Cl)cc2)c1Cl [3-chloro-N-{4-chloro-2-[(4-chlorophenyl)carbamoyl]phenyl}-4-{[(2-hydroxyethyl)(methyl)amino]methyl}thiophene-2-carboxamide] | > 5 |
| O=C(Nc1ccc(Cl)cc1)c1cc(Cl)ccc1NC(=O)c1sc(CN2CCOCC2)cc1Cl [3-chloro-N-{4-chloro-2-[(4-chlorophenyl)carbamoyl]phenyl}-5-(morpholin-4-ylmethyl)thiophene-2-carboxamide] | > 5 |

Next, values leading:

| Ki [µM] | SMILES |
| --- | --- |
| > 5 | O=C(Nc1ccc(Cl)cc1)c1cc(Cl)ccc1NC(=O)c1scc(Cn2ccnn2)c1Cl [3-chloro-N-{4-chloro-2-[(4-chlorophenyl)carbamoyl]phenyl}-4-(1H-1,2,3-triazol-1-ylmethyl)thiophene-2-carboxamide] |
| > 5 | O=C(Nc1ccc(Cl)cc1)c1cc(Cl)ccc1NC(=O)c1scc(Cn2cncn2)c1Cl [3-chloro-N-{4-chloro-2-[(4-chlorophenyl)carbamoyl]phenyl}-4-(1H-1,2,4-triazol-1-ylmethyl)thiophene-2-carboxamide] |
| > 5 | O=C(Nc1ccc(Cl)cc1)c1cc(Cl)ccc1NC(=O)c1scc(Cn2ccnc2)c1Cl [3-chloro-N-{4-chloro-2-[(4-chlorophenyl)carbamoyl]phenyl}-4-(1H-imidazol-1-ylmethyl)thiophene-2-carboxamide] |
| > 5 | O=C(Nc1ccc(Cl)cc1)c1cc(Cl)ccc1NC(=O)c1scc(Cn2ncnn2)c1Cl [3-chloro-N-{4-chloro-2-[(4-chlorophenyl)carbamoyl]phenyl}-4-(2H-1,2,3,4-tetrazol-2-ylmethyl)thiophene-2-carboxamide] |
| > 5 | C[S+]([O-])Cc1csc(C(=O)Nc2ccc(Cl)cc2C(=O)Nc2ccc(Cl)cc2)c1Cl (stereo not drawn) [3-chloro-N-{4-chloro-2-[(4-chlorophenyl)carbamoyl]phenyl}-4-(methanesulfinylmethyl)thiophene-2-carboxamide] |
| > 5 | CS(=O)(=O)Cc1csc(C(=O)Nc2ccc(Cl)cc2C(=O)Nc2ccc(Cl)cc2)c1Cl [3-chloro-N-{4-chloro-2-[(4-chlorophenyl)carbamoyl]phenyl}-4-(methanesulfonylmethyl)thiophene-2-carboxamide] |
| > 5 | O=C(Nc1ccc(Cl)cc1)c1cc(Cl)ccc1NC(=O)c1scc(CN2CCOCC2)c1Cl [3-chloro-N-{4-chloro-2-[(4-chlorophenyl)carbamoyl]phenyl}-4-(morpholin-4-ylmethyl)thiophene-2-carboxamide] |
| > 5 | CN(CCOCCO)Cc1csc(C(=O)Nc2ccc(Cl)cc2C(=O)Nc2ccc(Cl)cc2)c1Cl [3-chloro-N-{4-chloro-2-[(4-chlorophenyl)carbamoyl]phenyl}-4-({[2-(2-hydroxyethoxy)ethyl](methyl)amino}methyl)thiophene-2-carboxamide] |
| > 5 | CCN(CC)CCN(C)Cc1csc(C(=O)Nc2ccc(Cl)cc2C(=O)Nc2ccc(Cl)cc2)c1Cl [3-chloro-N-{4-chloro-2-[(4-chlorophenyl)carbamoyl]phenyl}-4-({[2-(diethylamino)ethyl](methyl)amino}methyl)thiophene-2-carboxamide] |
| > 5 | CN(C)CCN(C)Cc1csc(C(=O)Nc2ccc(Cl)cc2C(=O)Nc2ccc(Cl)cc2)c1Cl [3-chloro-N-{4-chloro-2-[(4-chlorophenyl)carbamoyl]phenyl}-4-({[2-(dimethylamino)ethyl](methyl)amino}methyl)thiophene-2-carboxamide] |
| > 5 | CSCc1csc(C(=O)Nc2ccc(Cl)cc2C(=O)Nc2ccc(Cl)cc2)c1Cl [3-chloro-N-{4-chloro-2-[(4-chlorophenyl)carbamoyl]phenyl}-4-[(methylsulfanyl)methyl]thiophene-2-carboxamide] |
| > 5 | Cc1cccc2sc(C(=O)Nc3ccc(Cl)cc3C(=O)Nc3ccc(Cl)cc3)c(Cl)c12 [3-chloro-N-{4-chloro-2-[(4-chlorophenyl)carbamoyl]phenyl}-4-methyl-1-benzothiophene-2-carboxamide] |
| > 5 | Cc1csc(C(=O)Nc2ccc(Cl)cc2C(=O)Nc2ccc(Cl)cc2)c1Cl [3-chloro-N-{4-chloro-2-[(4-chlorophenyl)carbamoyl]phenyl}-4-methylthiophene-2-carboxamide] |
| > 5 | COCCOCCOCc1csc(C(=O)Nc2ccc(Cl)cc2C(=O)Nc2ccc(Cl)cc2)c1Cl [3-chloro-N-{4-chloro-2-[(4-chlorophenyl)carbamoyl]phenyl}-4-{[2-(2-methoxyethoxy)ethoxy]methyl}thiophene-2-carboxamide] |
| > 5 | CN1CCN(Cc2cc(Cl)c(C(=O)Nc3ccc(Cl)cc3C(=O)Nc3ccc(Cl)cc3)s2)CC1 [3-chloro-N-{4-chloro-2-[(4-chlorophenyl)carbamoyl]phenyl}-5-[(4-methylpiperazin-1-yl)methyl]thiophene-2-carboxamide] |
| > 5 | CN1CCN(Cc2ccc3c(Cl)c(C(=O)Nc4ccc(Cl)cc4C(=O)Nc4ccc(Cl)cc4)sc3c2)CC1 [3-chloro-N-{4-chloro-2-[(4-chlorophenyl)carbamoyl]phenyl}-6-[(4-methylpiperazin-1-yl)methyl]-1-benzothiophene-2-carboxamide] |
